Consider one molecule from patent US10927117B2 (BEIGENE SWITZERLAND GMBH, priority 2016, dated 2021).

Data set [1] deals with Rec-1 cells (MCL cell line). Put plainly: Tumor cell proliferation, CellTiter-Glo, Rec-1. In kind it is cell-based. The following applies: Homo sapiens, Rec1, 144 h, Rec-1 cell line, 6-day exposure, mean of 3 independent assays, read-out: Potency IC50. As for the experimental part: 3 MCL cell lines (Rec-1, Mino and JEKO-1) and an ABC type diffuse large B-cell lymphoma cell line (TMD8) were used in this study. Cell lines were maintained in RPMI-1640 supplemented with 10% fetal bovine serum/FBS (Thermo Scientific); 100 units/ml penicillin (Gibco) and 0.1 mg/ml streptomycin (Gibco) and kept at 37° C. in a humidified atmosphere of 5% CO2 in air. Cell lines were reinstated from frozen stocks that were laid down within 30 passages from the original cells purchased.
The growth-inhibitory activity of compounds in Rec-1, Mino, JEKO-1 and TMD-8 cells was determined using CellTiter-Glo luminescent cell viability assay (Promega). The number of cells seeded per well of a 96-well plate was optimized for each cell line to ensure logarithmic growth over 6 days treatment period. Cells were treated in triplicate with a 10-point dilution series. […] Mixture was mixed on an orbital shaker for 2 minutes to allow cell lysis, followed by 10 minutes incubation at room temperature to allow development and stabilization of luminescent signal, which corresponded to quantity of ATP and thus the quantity of metabolically active cells. Luminescent signal was measured using PHERAstar FS reader (BMG Labtech). IC50 values for cell viability were determined with GraphPad Prism software and were the mean of 3 independent assays.

The nature of data set [2]: Physical and long term stability test. In kind it is physicochemical.
Setting [3] is: 25° C./60% RH for up to 24 months.
The mark [4] stands for this setting: 40° C./75% RH for up to 6 months.

Entries after “also recorded” stand apart in the source; their conditions may differ.

One may read the IC50 as the point on the concentration scale where inhibition reaches its midpoint. `C=CC(=O)N1CCC([C@@H]2CCNc3c(C(N)=O)c(-c4ccc(Oc5ccccc5)cc4)nn32)CC1` [Crystalline Form A, (S)-7-(1-acryloylpiperidin-4-yl)-2-(4-phenoxyphenyl)-4,5,6,7-tetra-hydropyrazolo[1,5-a]pyrimidine-3-carboxamide]: the IC50 in data set [1] stood at 0.36 nM. Also, the crystal form change result was “no crystal form and optical purity changes; also recorded: no crystal form change” in data set [2] (setting [3]); “no crystal form and optical purity changes; also recorded: no crystal form change” in data set [2] (setting [4]). Moreover, the optical purity change entry in data set [2] (setting [3]) is “no crystal form and optical purity changes”; in data set [2] (setting [4]), “no crystal form and optical purity changes”. Besides, the “chemical purity (% area) T0” value is 99.2% in data set [2] (25° C./60% RH) and 99.1% in data set [2] (40° C./75% RH). Moreover, the “chemical purity (% area) T12” value in data set [2] (25° C./60% RH, T12) was 99.2%. Further, the “chemical purity (% area) T6” value in data set [2] (40° C./75% RH, T6) is reported as 99.4%. For the same molecule, in data set [2] (80° C. for two days), the “crystal form change (XRPD)” value is “no crystal form change”.
